Measured values reported in US12115393B2, “Methods for setting parameters of a neurostimulation device and associated devices” (INSTITUT NATIONAL DE LA SANTE ET DE LA RECHERCHE MEDICALE …, priority 2019, dated 2024).

What was measured:
Assay type in all cases: in vivo
[1] = system: unpredictable chronic mild stress (UCMS) mouse model; assay: open-field task in UCMS mice; details: 15 mg/kg fluoxetine in drinking water from day 7, tested day 43, p<0.10
Procedure: (§1) From day 7 on, mice from the Veh (vehicle) and the Flx (fluoxetine) groups were chronically treated through drinking water respectively with water alone (n=12) or 15 mg/kg fluoxetine (n=12).
(§2) The main cohort of fifty-three mice followed the UCMS regimen from day 0 to day 35, as described previously. Briefly, mice were isolated in 24×11×12 cm cages without environmental enrichment and submitted to daily random socio-environmental stressors including: exposition to another mouse bedding, removal of sawdust, contention and light dark cycle perturbations.
Pharmacological treatments (15 mg/kg fluoxetine) were given from day 7 on to achieve chronic administration at week 5. […]
(§3) Behaviors were assessed during the dark phase of the light-dark cycle, i.e., the active, awoken phase for the animals. The effects of ultrasound neurostimulation were assessed against those of the fluoxetine treatment from day 38 to day 43 with 1) the nest-building test, 2) the reward-maze test and 3) the open field task.
3. […] The latency to reach the center area (d=10 cm) and the number of center-crossings were measured for up to 5 min. The movements of the mice were recorded and tracked with the software EthoVision XT (Noldus Information Technology, Netherlands) to generate individual heat maps, color-coded for position frequencies over the duration of the test.

[2] = system: unpredictable chronic mild stress (UCMS) mouse model; assay: reward-maze test in UCMS mice
Procedure: as §1, §2
(§4) Pharmacological treatments (15 mg/kg fluoxetine) were given from day 7 on to achieve chronic administration at week 5. The chronic ultrasound neurostimulation treatment was given during the fifth week of the UCMS (stressors: 08:00-12:00 AM, treatment: 02:00 PM). […]
as §3
2. […] The latency to reach the reward and its consumption were measured for up to 5 min.

[3] = system: unpredictable chronic mild stress (UCMS) mouse model; assay: nest-building test in UCMS mice; details: 15 mg/kg fluoxetine chronically through drinking water from day 7, tested day 38, score max. 5
Procedure: as §1, §2, §4, §3
1. […] After 5 hours in standard condition, the state of the nest, built in cotton, was scored on a predefined scale. […]

## CNCCC(Oc1ccc(C(F)(F)F)cc1)c1ccccc1 (stereo not shown) [fluoxetine]
[1]
  number of center-crossings: did not significantly affect
[2]; 15 mg/kg fluoxetine in drinking water from day 7, tested day 40, Veh vs Flx p=0.033
  consumption of the reward: modified
[2]; 15 mg/kg fluoxetine in drinking water from day 7, tested day 40, Veh vs Flx p=0.042
  latency to travel across the apparatus and reach the food reward: decreased three-fold
[3]
  nest-building score (ability to build a nest within 5 hours): no effect
